Experiments:
Format in all cases: in vivo
[1] = tested on: ivy-leaved morning glory (Ipomoea hederacea); assay: Test G Post-Emergence Protocol; settings: Ipomoea, post-emergence, 312 h; for pest or weed control at 15.625 g/ha: 15.625 g ai/ha, evaluated after 13 days (100=total damage to plant; 0=no damage to plant), read-out: Morningglory, Ivy-leaved damage rating; for pest or weed control at 62.5 g/ha: 62.5 g ai/ha, read-out: Morningglory, Ivy-leaved damage rating (100=total damage to plant; 0=no damage to plant); for pest or weed control at 62.5 g/ha / pest or weed control at 250 g/ha: evaluated after 13 days; for pest or weed control at 250 g/ha: 250 g ai/ha, read-out: damage to plant, Morningglory, Ivy-leaved (100=total damage to plant; 0=no damage to plant)
Outline: (§1)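 Pot-grown seedlings, 8 days old, raised in a glasshouse at 24/16 °C day/night with 14 h light and 65% humidity, were sprayed post-emergence with test compound in acetone/water (50:50) plus 0.5% Tween 20 at 15.625, 62.5 or 250 g/ha. Damage was scored visually 13 days later on a 0–100 scale (100 = total damage).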

[2] = tested on: giant foxtail (Setaria faberi); assay: Test G Post-Emergence Protocol; settings: Setaria faberi, post-emergence, 312 h; for pest or weed control at 15.625 g/ha: 15.625 g ai/ha, evaluated after 13 days (100=total damage to plant; 0=no damage to plant), read-out: Foxtail, Giant damage rating; for pest or weed control at 62.5 g/ha: 62.5 g ai/ha, read-out: Foxtail, Giant damage rating (100=total damage to plant; 0=no damage to plant); for pest or weed control at 62.5 g/ha / pest or weed control at 250 g/ha: evaluated after 13 days; for pest or weed control at 250 g/ha: 250 g ai/ha, read-out: damage to plant, Foxtail, Giant (100=total damage to plant; 0=no damage to plant)
Outline: as §1

[3] = tested on: velvetleaf (Abutilon theophrasti); assay: Test G Post-Emergence Protocol; settings: Abutilon theophrasti, post-emergence, 312 h; for pest or weed control at 15.625 g/ha: 15.625 g ai/ha, evaluated after 13 days (100=total damage to plant; 0=no damage to plant), read-out: Velvetleaf damage rating; for pest or weed control at 62.5 g/ha: 62.5 g ai/ha, read-out: Velvetleaf damage rating (100=total damage to plant; 0=no damage to plant); for pest or weed control at 62.5 g/ha / pest or weed control at 250 g/ha: evaluated after 13 days; for pest or weed control at 250 g/ha: 250 g ai/ha, read-out: damage to plant, Velvetleaf (100=total damage to plant; 0=no damage to plant)
Outline: as §1

[4] = tested on: barnyardgrass (Echinochloa crus-galli); assay: Test G Post-Emergence Protocol; settings: Echinochloa crus-galli, post-emergence, 312 h; for pest or weed control at 15.625 g/ha: 15.625 g ai/ha, evaluated after 13 days (100=total damage to plant; 0=no damage to plant), read-out: Barnyardgrass damage rating; for pest or weed control at 62.5 g/ha: 62.5 g ai/ha, read-out: Barnyardgrass damage rating (100=total damage to plant; 0=no damage to plant); for pest or weed control at 62.5 g/ha / pest or weed control at 250 g/ha: evaluated after 13 days; for pest or weed control at 250 g/ha: 250 g ai/ha, read-out: damage to plant, Barnyardgrass (100=total damage to plant; 0=no damage to plant)
Outline: as §1

corn (Zea mays) [5] = assay: Test G Post-Emergence Protocol; settings: Zea mays, post-emergence, 312 h; for plant injury at 15.625 g/ha: 15.625 g ai/ha, evaluated after 13 days (100=total damage to plant; 0=no damage to plant), read-out: Corn damage rating; for plant injury at 62.5 g/ha: 62.5 g ai/ha, read-out: Corn damage rating (100=total damage to plant; 0=no damage to plant); for plant injury at 62.5 g/ha / plant injury at 250 g/ha: evaluated after 13 days; for plant injury at 250 g/ha: 250 g ai/ha, read-out: damage to plant, Corn (100=total damage to plant; 0=no damage to plant)
Outline: as §1

[6] = tested on: redroot pigweed (Amaranthus retroflexus); assay: Test G Post-Emergence Protocol; settings: Amaranthus retroflexus, post-emergence, 312 h; for pest or weed control at 15.625 g/ha: 15.625 g ai/ha, evaluated after 13 days (100=total damage to plant; 0=no damage to plant), read-out: Pigweed, Redroot damage rating; for pest or weed control at 62.5 g/ha: 62.5 g ai/ha, read-out: Pigweed, Redroot damage rating (100=total damage to plant; 0=no damage to plant); for pest or weed control at 62.5 g/ha / pest or weed control at 250 g/ha: evaluated after 13 days; for pest or weed control at 250 g/ha: 250 g ai/ha, read-out: damage to plant, Pigweed, Redroot (100=total damage to plant; 0=no damage to plant)
Outline: as §1

[7] = tested on: ivy-leaved morning glory (Ipomoea hederacea); assay: Test G Pre-Emergence Protocol; settings: Ipomoea, pre-emergence, 312 h, evaluated after 13 days; for pest or weed control at 15.625 g/ha: 15.625 g ai/ha, read-out: Morning-glory, Ivy-leaved damage rating (100=total damage to plant; 0=no damage to plant); for pest or weed control at 62.5 g/ha: 62.5 g ai/ha, 100=total damage to plant, 0=no damage to plant, read-out: plant damage rating, Morningglory, Ivy-leaved; for pest or weed control at 250 g/ha: 250 g ai/ha, read-out: Morningglory, Ivy-leaved damage rating (100=total damage to plant; 0=no damage to plant)
Outline: (§2)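 Herbicidal effect was rated 13 days post-application on a scale where 100 equals total damage. Spraying took place the day after sowing, using 15.625, 62.5 or 250 g/ha of compound in a 50:50 acetone/water solution with 0.5% Tween 20.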

[8] = tested on: giant foxtail (Setaria faberi); assay: Test G Pre-Emergence Protocol; settings: Setaria faberi, pre-emergence, 312 h, evaluated after 13 days; for pest or weed control at 15.625 g/ha: 15.625 g ai/ha; for pest or weed control at 15.625 g/ha / pest or weed control at 250 g/ha: read-out: Foxtail, Giant damage rating (100=total damage to plant; 0=no damage to plant); for pest or weed control at 62.5 g/ha: 62.5 g ai/ha, 100=total damage to plant, 0=no damage to plant, read-out: plant damage rating, Foxtail, Giant; for pest or weed control at 250 g/ha: 250 g ai/ha
Outline: as §2

[9] = tested on: velvetleaf (Abutilon theophrasti); assay: Test G Pre-Emergence Protocol; settings: Abutilon theophrasti, pre-emergence, 312 h, evaluated after 13 days; for pest or weed control at 15.625 g/ha: 15.625 g ai/ha; for pest or weed control at 15.625 g/ha / pest or weed control at 250 g/ha: read-out: Velvetleaf damage rating (100=total damage to plant; 0=no damage to plant); for pest or weed control at 62.5 g/ha: 62.5 g ai/ha, 100=total damage to plant, 0=no damage to plant, read-out: plant damage rating, Velvetleaf; for pest or weed control at 250 g/ha: 250 g ai/ha
Outline: as §2

[10] = tested on: barnyardgrass (Echinochloa crus-galli); assay: Test G Pre-Emergence Protocol; settings: Echinochloa crus-galli, pre-emergence, 312 h, evaluated after 13 days; for pest or weed control at 15.625 g/ha: 15.625 g ai/ha, read-out: Barnyard grass damage rating (100=total damage to plant; 0=no damage to plant); for pest or weed control at 62.5 g/ha: 62.5 g ai/ha, 100=total damage to plant, 0=no damage to plant, read-out: plant damage rating, Barnyardgrass; for pest or weed control at 250 g/ha: 250 g ai/ha, read-out: Barnyardgrass damage rating (100=total damage to plant; 0=no damage to plant)
Outline: as §2

corn (Zea mays) [11] = assay: Test G Pre-Emergence Protocol; settings: Zea mays, pre-emergence, 312 h, evaluated after 13 days; for plant injury at 15.625 g/ha: 15.625 g ai/ha; for plant injury at 15.625 g/ha / plant injury at 250 g/ha: read-out: Corn damage rating (100=total damage to plant; 0=no damage to plant); for plant injury at 62.5 g/ha: 62.5 g ai/ha, 100=total damage to plant, 0=no damage to plant, read-out: plant damage rating, Corn; for plant injury at 250 g/ha: 250 g ai/ha
Outline: as §2

[12] = tested on: redroot pigweed (Amaranthus retroflexus); assay: Test G Pre-Emergence Protocol; settings: Amaranthus retroflexus, pre-emergence, 312 h, evaluated after 13 days; for pest or weed control at 15.625 g/ha: 15.625 g ai/ha; for pest or weed control at 15.625 g/ha / pest or weed control at 250 g/ha: read-out: Pigweed, Redroot damage rating (100=total damage to plant; 0=no damage to plant); for pest or weed control at 62.5 g/ha: 62.5 g ai/ha, 100=total damage to plant, 0=no damage to plant, read-out: plant damage rating, Pigweed, Redroot; for pest or weed control at 250 g/ha: 250 g ai/ha
Outline: as §2

Row | Compound | pest or weed control at 15.625 g/ha [1] | pest or weed control at 62.5 g/ha [1] | pest or weed control at 250 g/ha [1] | pest or weed control at 15.625 g/ha [2] | pest or weed control at 62.5 g/ha [2] | pest or weed control at 250 g/ha [2] | pest or weed control at 15.625 g/ha [3] | pest or weed control at 62.5 g/ha [3] | pest or weed control at 250 g/ha [3] | pest or weed control at 15.625 g/ha [4] | pest or weed control at 62.5 g/ha [4] | pest or weed control at 250 g/ha [4] | plant injury at 15.625 g/ha (corn (Zea mays) [5]) | plant injury at 62.5 g/ha (corn (Zea mays) [5]) | plant injury at 250 g/ha (corn (Zea mays) [5]) | pest or weed control at 15.625 g/ha [6] | pest or weed control at 62.5 g/ha [6] | pest or weed control at 250 g/ha [6] | pest or weed control at 15.625 g/ha [7] | pest or weed control at 62.5 g/ha [7] | other results
1 | CN1C[C@@H](c2ccc(NS(C)(=O)=O)cc2)[C@H](C(=O)Nc2ccccc2F)C1=O (racemic) [Compound 1416] | 0% | 0% | 0% | 0% | 0% | 0% | 0% | 0% | 0% | 0% | 0% | 0% | 0% | 0% | 0% | 0% | 0% | 0% | 0% | 0% | pest or weed control at 250 g/ha [7]: 0%; pest or weed control at 15.625 g/ha [8]: 0%; pest or weed control at 62.5 g/ha [8]: 0%; pest or weed control at 250 g/ha [8]: 0%; pest or weed control at 15.625 g/ha [9]: 0%; pest or weed control at 62.5 g/ha [9]: 0%; pest or weed control at 250 g/ha [9]: 0%; pest or weed control at 15.625 g/ha [10]: 0%; pest or weed control at 62.5 g/ha [10]: 0%; pest or weed control at 250 g/ha [10]: 0%; plant injury at 15.625 g/ha (corn (Zea mays) [11]): 0%; plant injury at 62.5 g/ha (corn (Zea mays) [11]): 0%; plant injury at 250 g/ha (corn (Zea mays) [11]): 0%; pest or weed control at 15.625 g/ha [12]: 0%; pest or weed control at 62.5 g/ha [12]: 0%; pest or weed control at 250 g/ha [12]: 0%
2 | Cc1ccc(NC(=O)[C@@H]2C(=O)N(C)C[C@H]2c2ccc(C(F)(F)F)cc2)c(F)c1 (racemic) [Compound 1591] | 0% | 10% | 10% | 0% | 70% | 80% | 0% | 0% | 10% | 0% | 30% | 50% | 0% | 0% | 10% | 0% | 10% | 10% | 0% | 0% | pest or weed control at 250 g/ha [7]: 0%; pest or weed control at 15.625 g/ha [8]: 0%; pest or weed control at 62.5 g/ha [8]: 70%; pest or weed control at 250 g/ha [8]: 80%; pest or weed control at 15.625 g/ha [9]: 0%; pest or weed control at 62.5 g/ha [9]: 0%; pest or weed control at 250 g/ha [9]: 10%; pest or weed control at 15.625 g/ha [10]: 0%; pest or weed control at 62.5 g/ha [10]: 50%; pest or weed control at 250 g/ha [10]: 70%; plant injury at 15.625 g/ha (corn (Zea mays) [11]): 0%; plant injury at 62.5 g/ha (corn (Zea mays) [11]): 10%; plant injury at 250 g/ha (corn (Zea mays) [11]): 0%; pest or weed control at 15.625 g/ha [12]: 0%; pest or weed control at 62.5 g/ha [12]: 0%; pest or weed control at 250 g/ha [12]: 0%

From patent US12077503B2, “Substituted cyclic amides and their use as herbicides” (FMC CORPORATION, priority 2015, dated 2024)
